From the NIST ThermoML archive (doi:10.1016/j.jct.2005.03.015)

Experiment: mn = molality of the nth substance listed, in mol/kg
Conditions: 298.15 K, 101 kPa, Liquid

NCC(=O)O [2-aminoacetic acid] + O
Conditions | mass density [kg/m3]
m1 = 0.0988 | 1000.19
m1 = 0.1509 | 1001.82
m1 = 0.2033 | 1003.44
m1 = 0.2463 | 1004.78
m1 = 0.2996 | 1006.4
m1 = 0.3513 | 1007.96
m1 = 0.4037 | 1009.55
m1 = 0.4497 | 1010.94

NC(CO)C(=O)O (stereo not drawn) [(.+-.)-serine] + O
Conditions | mass density [kg/m3]
m1 = 0.02628 | 998.22
m1 = 0.04948 | 999.26
m1 = 0.07419 | 1000.35
m1 = 0.1008 | 1001.52
m1 = 0.1252 | 1002.6
m1 = 0.1509 | 1003.72
m1 = 0.1753 | 1004.76
m1 = 0.2009 | 1005.86

C[C@H](N)C(=O)O [(S)-2-aminopropanoic acid] + O
Conditions | mass density [kg/m3]
m1 = 0.1065 | 1000.07
m1 = 0.1518 | 1001.34
m1 = 0.2006 | 1002.71
m1 = 0.2568 | 1004.27
m1 = 0.3059 | 1005.52
m1 = 0.359 | 1007.03
m1 = 0.4066 | 1008.35
m1 = 0.4555 | 1009.54

C[C@@H](O)[C@H](N)C(=O)O [DL-threonine] + O
Conditions | mass density [kg/m3]
m1 = 0.0246 | 998.08
m1 = 0.0494 | 999.12
m1 = 0.07575 | 1000.22
m1 = 0.1002 | 1001.23
m1 = 0.1256 | 1002.28
m1 = 0.1499 | 1003.28
m1 = 0.1751 | 1004.31
m1 = 0.2001 | 1005.33

N[C@@H](Cc1c[nH]cn1)C(=O)O [L-histidine] + O
Conditions | mass density [kg/m3]
m1 = 0.02223 | 998.29
m1 = 0.04995 | 999.84
m1 = 0.07431 | 1001.19
m1 = 0.099 | 1002.56
m1 = 0.1232 | 1003.87
m1 = 0.1428 | 1004.92
m1 = 0.1834 | 1007.13
m1 = 0.2013 | 1008.08

NCC(=O)NCC(=O)O [glycylglycine] + O
Conditions | mass density [kg/m3]
m1 = 0.02426 | 998.39
m1 = 0.05026 | 999.84
m1 = 0.07538 | 1001.22
m1 = 0.0999 | 1002.54
m1 = 0.1253 | 1003.95
m1 = 0.1482 | 1005.2
m1 = 0.1746 | 1006.63
m1 = 0.1974 | 1007.84
